Source: PubChem BioAssay (NCI)
Several values for one entry are separate records, joined by “and”; a condition that tells them apart may be missing. Equal entries are not always repeated.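 96-well plates; 48 h exposure; 5 concentrations. Endpoints by linear interpolation between flanking doses. Not reached: highest tested concentration assigned. At the GI50, growth is halved. TGI: total growth inhibition.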

Tested on: MDA-MB-468 breast
Assay: inhibition of tumour cell growth, NCI panel, 48 h

| SMILES | GI50 | TGI |
| --- | --- | --- |
| COc1cc(OC)c(/C=C/C(=O)c2c(OC)cc(OC)cc2OC)c(OC)c1 | 0.7 µM | 4.55 µM |
| CC(C)(C)NCC(O)c1ccccc1Cl (configuration not stated) | > 100 µM | > 100 µM |
| Cc1ccsc1C(NC(=O)c1ccccc1)c1cc(Cl)c2cccnc2c1O (configuration not stated) | 0.602 µM | 5.63 µM |
| CN1CCN(Cc2ccc(NC(=O)c3cncc(C#Cc4ccc(N)nc4)c3)cc2C(F)(F)F)CC1 | 1.01 µM | 4.3 µM |
| CCCCCCCCN(CCCCCCCC)CC(O)c1cc(-c2ccccc2)nc2ccc(OC)cc12 (configuration not stated) | 39.2 µM | > 100 µM |
| CCC(=O)NC1=C(Cl)C(=O)C(NC(=O)CC)=C(Cl)C1=O | 1.72 µM | 3.66 µM |
| N#C/C(=C\c1ccc[nH]1)c1cc(-c2ccc(Cl)cc2)nn1-c1ccccc1 | 0.269 µM | 2.23 µM |
| CCC[CH2][Sn]1([CH2]CCC)[O]C(=O)c2cccc([N+](=O)[O-])c2C(=O)[O]1 | 0.153 µM | 0.449 µM |
| CCN1CCN(c2ccc(NC(=O)Nc3nc4ccc(-c5ccccc5OC)cc4s3)cc2)CC1 | 2.17 µM | 4.03 µM |
| CCOP(=O)(OCC)/C(=C/n1c(=S)[nH]c2ccccc21)C(=O)OC | > 100 µM | > 100 µM |
| Nc1nc(-c2ccc3c(c2)/C(=C\c2cc(Br)c(O)c(Br)c2)C(=O)N3)cs1 | 6.5 µM | > 22.8 µM |
| Cc1ccc2sc3c(NCCCN)nc4ccccc4c3c(=O)c2c1 | 1.67 µM | 3.36 µM |
| COc1ccc(C(=O)/C=C/c2ccc(OCc3cccc(C(F)(F)F)c3)c(OC)c2)cc1OC | 107 µM | > 1000 µM |
| Cn1nc(C(F)(F)F)cc1-c1cc(Cl)c(OCc2ccc(Cl)cc2)c(-c2ccc(Cl)c(C(F)(F)F)c2)c1O | 0.833 µM | 4.97 µM |
| C=CCc1c(O)c(C(=O)/C=C/c2ccc(Cl)cc2)c(OC)c2ccoc12 | 2.27 µM | 5.84 µM |
| Cc1nnc(N/N=C/c2ccc([N+](=O)[O-])o2)[nH]c1=O | 0.749 µM | 12.2 µM |
| COc1cc2ncnc(Oc3ccc(NC(=O)Nc4ccc(CN5CCOCC5)c(C(F)(F)F)c4)c4ccccc34)c2cc1OC | 0.249 µM | 1.85 µM |
| Cc1cc(OCc2ccc(C(F)(F)F)cc2)c2c(c1)C(=O)C=C(NCCN1CCCC1)C2=O | 2 µM | 4.55 µM |
| Oc1c(C(c2ccc(F)cc2)N2CCCCC2)ccc2cncnc12 (configuration not stated) | 0.494 µM | 8.47 µM |
| O=C1C2=C(C(=O)c3ccccc31)C(O)(S(=O)(=O)O)C(O)(S(=O)(=O)O)C1N=CC=CC21 (configuration not stated) | 10.6 µM and 4.29 µM | 37.5 µM and 21.2 µM |
| COC(=O)Nc1nc2ccc(C(=O)c3cccc(I)c3)cc2[nH]1 | 0.0598 µM | 2.14 µM |

| SMILES | GI50 | TGI |
| --- | --- | --- |
| CC1=CC2(C)/C=C(C)/C=C\CC(O)/C=C3/C=CC(=C4C(=O)OC2(CC1C)C4=O)OC3 (configuration not stated) | 1.18 µM | 2.85 µM |
| COc1nn(C)cc1Nc1nccc(-c2c[nH]c3c(NC(=O)[C@@H](C)N4CCN(C)CC4)cccc23)n1 | 25 µM | 67.8 µM |
| Clc1cnc(Nc2ccc(OCCN3CCCC3)cc2)nc1NCc1ccco1 | 2.37 µM | 5.1 µM |
| COc1c(C(N)=O)cc(-c2ccc(Cl)cc2)cc1-c1ccc(S(N)(=O)=O)cc1 | 4.33 µM | 11.1 µM |
| O=C1/C=C/[C@@H](O)[C@@H]2C[C@@H](O)C[C@H]2/C=C/CCC[C@H](CCO)O1 | 0.0239 µM | 0.0757 µM |
| CCOC(=O)C1=C(Nc2ccc(OC)cc2)C(N)=NC1=N | 0.474 µM | > 100 µM |
| COc1ccc2c3ccnc(C(F)(F)F)c3n(CCCCN)c2c1 | 3.22 µM | 13.4 µM |
| NC(=Nc1ccccc1)N/N=C/c1c[nH]c2ccccc12 | 0.501 µM | 1.87 µM |
| CCOC(=O)N1CCC(N=C2CSc3nnc(-c4cc(C(F)(F)F)cc(C(F)(F)F)c4)n3N2)CC1 | 1.74 µM | 4.67 µM |
| C[C@@H]1CC[C@@H]2[C@@H]1[C@H](OC(=O)/C=C/C1CCCCC1)[C@]1(C3CCCCC3)C[C@@H](OC(=O)CO)[C@@]2(C)O1 | 13.4 µM | 27.5 µM |
| O=C(Nc1cccc([N+](=O)[O-])c1)c1cccc(C(=O)Nc2cccc([N+](=O)[O-])c2)c1 | > 100 µM | > 100 µM |
| Cc1c(C(=O)Nc2ccc(N3C[C@@H](C)O[C@@H](C)C3)nc2)cccc1-c1ccc(OC(F)(F)F)cc1 | 3.11 µM and 5.62 µM | 19.2 µM and 31.7 µM |
| c1ccc2c(N=NSc3ncnc4nc[nH]c34)c3ccccc3nc2c1 | 0.549 µM | 2.34 µM |
| O=C(Nc1nc2c(C(F)(F)F)cccc2s1)c1cc(Cl)ccc1O | 0.226 µM | 0.749 µM |
| CN1C(=O)N(C)C2C1NC(=S)N2/N=C/C=C/c1ccccc1[N+](=O)[O-] (configuration not stated) | 0.431 µM | 88.2 µM |
| Cc1[nH]nc(C(F)(F)F)c1Cc1sc2c(c1C(=O)N1C[C@](C)(O)CO1)c(=O)n(C)c(=O)n2C(C)C | > 100 µM | > 100 µM |
| CC1Cc2c(Cl)ncnc2N(C)c2ccccc21 (configuration not stated) | 1.6 µM | 6.81 µM |
| CCN(CC)CCOc1nc2ccccc2c2c1-c1ccc(OC)cc1C2=O | 0.857 µM | 3.26 µM |
| CCN1CCN(C(=O)[C@]23CC[C@@H](C)[C@H](C)[C@@H]2C2=CC[C@@H]4[C@@]5(C)CCC(=O)C(C)(C)[C@@H]5CC[C@@]4(C)[C@]2(C)CC3)CC1 | 0.931 µM | 2.32 µM |
| CC(C)[C@@H](C(=O)O[C@@H]1/C=C/C(=O)O[C@@H](C)CCC/C=C/[C@@H]2C[C@H](O)C[C@H]21)N(C)C | 1.53 µM | 6.18 µM |
